Test results published in US20260317324A1, “BIFUNCTIONAL COMPOUNDS FOR DEGRADING BRAF VIA UBIQUITIN PROTEOSOME PATHWAY” (Nurix Therapeutics, Inc., priority 2023, published 2026).
Values belong to the molecule of their own block, whether it stands above or below them.

How the values were obtained:
Format in all cases: cell-based
[1] = target: T1, BRAF D594G (Homo sapiens, UniProt P15056, D594G); test: BRAF HiBiT degradation assay, C-terminal HiBiT-tagged BRAF D594G overexpressed in HCT-116 BRAF−/− cells (clone 63), Nano-Glo HiBiT Lytic assay
T1 construct: Horizon Discovery (HCT-116 BRAF−/− cells); host or cells: HCT-116 BRAF−/− cells, clone 63, lentiviral transduction
Method in brief: (§1)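 Degradation assay in HCT-116 BRAF−/− cells carrying lentiviral HiBiT-tagged mutant BRAF. The readout is % protein remaining across 1 μM to 0.01 nM compound, and DC50 marks 50% remaining.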

[2] = target: T2, BRAF G466V (Homo sapiens, UniProt P15056, G466V); test: BRAF HiBiT degradation assay, C-terminal HiBiT-tagged BRAF G466V overexpressed in HCT-116 BRAF−/− cells (clone 8), Nano-Glo HiBiT Lytic assay
T2 construct: Horizon Discovery (HCT-116 BRAF−/− cells); host or cells: HCT-116 BRAF−/− cells, clone 8, lentiviral transduction
Method in brief: as §1

[3] = target: T3, BRAF G469A (Homo sapiens, UniProt P15056, G469A); test: BRAF HiBiT degradation assay, C-terminal HiBiT-tagged BRAF G469A overexpressed in HCT-116 BRAF−/− cells (clone 34), Nano-Glo HiBiT Lytic assay
T3 construct: Horizon Discovery (HCT-116 BRAF−/− cells); host or cells: HCT-116 BRAF−/− cells, clone 34, lentiviral transduction
Method in brief: as §1

[4] = target: T4, BRAF V600E (Homo sapiens, UniProt P15056, V600E); test: BRAF HiBiT degradation assay, C-terminal HiBiT-tagged BRAF V600E A375 cells (clone 1F10), Nano-Glo HiBiT Lytic assay; details: for Dmax: A-375
T4 construct: endogenous C-terminal HiBiT fusion tag on BRAF V600E allele; endogenous in cells; host or cells: A375 clone 1F10 (CRISPR-Cas9 knock-in of the HiBiT tag; parental A375 from ATCC)
Method in brief: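 Using CRISPR-engineered A375 cells that carry a C-terminal HiBiT tag on endogenous BRAF V600E, remaining protein was quantified by lytic luminescence relative to DMSO-treated cells, with wildtype A375 as the background control. DC50 denotes the concentration giving 50% degradation.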

[5] = BRAF D594G, DC50 at 50%: fitted conc. at Y=50
[6] = HCT-116, BRAF D594G, percentage protein degraded at maximal compound effect relative to DMSO
[7] = BRAF G466V, DC50 at 50%: fitted conc. at Y=50
[8] = HCT-116, BRAF G466V, percentage protein degraded at maximal compound effect relative to DMSO
[9] = Class 2, BRAF G469A, DC50 at 50%: fitted conc. at Y=50
[10] = HCT-116, Class 2, BRAF G469A, percentage protein degraded at maximal compound effect relative to DMSO
[11] = A375 (BRAF V600E), DC50 at 50%: fitted conc. at Y=50
[12] = A375 (BRAF V600E), percentage protein degraded at maximal compound effect relative to DMSO
[13] = BRAF D594G (Class 3), HCT-116 BRAF−/− cells, DC50 at 50% degradation
[14] = BRAF D594G (Class 3), HCT-116 BRAF−/− cells, observed Dmax relative to DMSO control
[15] = BRAF G466V (Class 3), HCT-116 BRAF−/− cells, DC50 at 50% degradation
[16] = BRAF G466V (Class 3), HCT-116 BRAF−/− cells, observed Dmax relative to DMSO control
[17] = BRAF G469A (Class 2), HCT-116 BRAF−/− cells, DC50 at 50% degradation
[18] = BRAF G469A (Class 2), HCT-116 BRAF−/− cells, observed Dmax relative to DMSO control
[19] = A375 (BRAF V600E, Class 1), DC50 at 50% degradation
[20] = A375 (BRAF V600E, Class 1), observed Dmax, % protein degraded relative to DMSO control

T1 sequence (P15056 whole entry D594G): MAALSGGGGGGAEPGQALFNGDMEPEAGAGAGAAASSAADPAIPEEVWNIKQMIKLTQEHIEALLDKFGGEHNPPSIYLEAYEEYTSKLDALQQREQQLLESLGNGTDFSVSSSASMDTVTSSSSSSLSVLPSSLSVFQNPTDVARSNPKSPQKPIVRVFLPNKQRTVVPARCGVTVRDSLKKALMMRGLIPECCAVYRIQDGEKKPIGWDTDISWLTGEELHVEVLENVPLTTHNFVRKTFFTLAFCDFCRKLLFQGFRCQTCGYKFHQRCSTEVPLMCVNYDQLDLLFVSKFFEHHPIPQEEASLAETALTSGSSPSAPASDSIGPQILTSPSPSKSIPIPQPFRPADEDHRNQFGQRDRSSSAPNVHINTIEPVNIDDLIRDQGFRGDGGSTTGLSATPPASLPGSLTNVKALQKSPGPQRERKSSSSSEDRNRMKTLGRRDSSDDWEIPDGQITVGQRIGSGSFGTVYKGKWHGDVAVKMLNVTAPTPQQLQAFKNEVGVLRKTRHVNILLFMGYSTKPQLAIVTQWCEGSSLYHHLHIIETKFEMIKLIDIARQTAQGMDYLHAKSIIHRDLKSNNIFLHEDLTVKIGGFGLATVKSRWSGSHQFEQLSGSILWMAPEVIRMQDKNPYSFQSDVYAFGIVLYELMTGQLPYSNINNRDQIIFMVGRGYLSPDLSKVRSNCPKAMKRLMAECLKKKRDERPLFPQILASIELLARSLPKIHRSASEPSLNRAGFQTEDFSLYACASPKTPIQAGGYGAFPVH
T4 sequence (P15056 whole entry V600E, the tested form may be a part): as the sequence (P15056 whole entry D594G) above, with G594D, V600E counted along it
T2 sequence (P15056 whole entry G466V): as the sequence (P15056 whole entry D594G) above, with G466V, G594D counted along it
T3 sequence (P15056 whole entry G469A): as the sequence (P15056 whole entry D594G) above, with G469A, G594D counted along it

Compound: CCCS(=O)(=O)Nc1cccc(-c2cn(-c3ccc(N4CCN(CC5CCN(c6ccc([C@H]7CCC(=O)NC7=O)cn6)CC5)CC4)cc3)nc2-c2ccncc2)c1F [Compound 2, N-{3-[1-(4-{4-[(1-{5-[(3R)-2,6-dioxopiperidin-3-yl]pyridin-2-yl}piperidin-4-yl)methyl]piperazin-1-yl}phenyl)-3-(pyridin-4-yl)-1H-pyrazol-4-yl]-2-fluorophenyl}propane-1-sulfonamide]
DC50 [1, 5]: 10 to 50 nM | Dmax [1, 6]: 30 to 70% | DC50 [2, 7]: 10 to 50 nM | Dmax [2, 8]: 30 to 70% | DC50 [3, 9]: 10 to 50 nM | Dmax [3, 10]: 30 to 70% | DC50 [4, 11]: 50 to 500 nM | Dmax [4, 12]: > 70%

Compound: O=C1CCN(c2ccc(N3CCC(CN4CCN(c5ccc(-n6cc(-c7cc(Cl)cc(NS(=O)(=O)N8CC[C@@H](F)C8)c7F)c(-c7ccncc7)n6)nc5)CC4)CC3)cc2)C(=O)N1 [Compound 295, (3R)—N-[5-chloro-3-(1-{5-[4-({1-[4-(2,4-dioxo-1,3-diazinan-1-yl)phenyl]piperidin-4-yl}methyl)piperazin-1-yl]pyridin-2-yl}-3-(pyridin-4-yl)-1H-pyrazol-4-yl)-2-fluorophenyl]-3-fluoropyrrolidine-1-sulfonamide]
DC50 [1, 13]: < 10 nM | Dmax [1, 14]: 30 to 70% | DC50 [2, 15]: < 10 nM | Dmax [2, 16]: 30 to 70% | DC50 [3, 17]: 50 to 500 nM | Dmax [3, 18]: 30 to 70% | DC50 [4, 19]: < 10 nM | Dmax [4, 20]: > 70%

Compound: CCCS(=O)(=O)Nc1cccc(-c2nc(C(C)(C)C)sc2-c2ccnc(Nc3cnn(CC4CCN(CC5CCN(c6ccc7c(=O)n(C8CCC(=O)NC8=O)ccc7c6)CC5)CC4)c3)n2)c1F (racemic) [Compound 83, Rac-N-{3-[2-tert-butyl-5-(2-{[1-({1-[(1-{2-[(3R)-2,6-dioxopiperidin-3-yl]-1-oxo-1,2-dihydroisoquinolin-6-yl}piperidin-4-yl)methyl]piperidin-4-yl}methyl)-1H-pyrazol-4-yl]amino}pyrimidin-4-yl)-1,3-thiazol-4-yl]-2-fluorophenyl}propane-1-sulfonamide]
DC50 [1, 5]: 50 to 500 nM | Dmax [1, 6]: < 30% | DC50 [2, 7]: 50 to 500 nM | Dmax [2, 8]: < 30% | DC50 [3, 9]: 50 to 500 nM | Dmax [3, 10]: < 30% | DC50 [4, 11]: < 10 nM | Dmax [4, 12]: > 70%

Compound: O=C1CC[C@H](c2ccc(N3CCC(CN4CCN(c5ccc(-n6cc(-c7cc(Cl)cc(NS(=O)(=O)N8CCCC8)c7F)c(-c7ccncc7)n6)cc5F)CC4)CC3)cc2)C(=O)N1 [Compound 364, N-{5-chloro-3-[1-(4-{4-[(1-{4-[(3R)-2,6-dioxopiperidin-3-yl]phenyl}piperidin-4-yl)methyl]piperazin-1-yl}-3-fluorophenyl)-3-(pyridin-4-yl)-1H-pyrazol-4-yl]-2-fluorophenyl}pyrrolidine-1-sulfonamide]
DC50 [1, 13]: < 10 nM | Dmax [1, 14]: > 70% | DC50 [2, 15]: < 10 nM | Dmax [2, 16]: > 70% | DC50 [3, 17]: 10 to 50 nM | Dmax [3, 18]: > 70% | DC50 [4, 19]: 10 to 50 nM | Dmax [4, 20]: > 70%

Compound: CCCS(=O)(=O)Nc1cccc(-c2nc(C(C)(C)C)sc2-c2ccnc(NCC3CCN(CC4CCN(c5ccc(C(=O)N[C@H]6CCC(=O)NC6=O)nc5)CC4)CC3)n2)c1F [Compound 147, 5-{4-[(4-{[(4-{2-tert-butyl-4-[2-fluoro-3-(propane-1-sulfonamido)phenyl]-1,3-thiazol-5-yl}pyrimidin-2-yl)amino]methyl}piperidin-1-yl)methyl]piperidin-1-yl}-N-[(3S)-2,6-dioxopiperidin-3-yl]pyridine-2-carboxamide]
DC50 [1, 5]: > 500 nM | Dmax [1, 6]: < 30% | DC50 [2, 7]: > 500 nM | Dmax [2, 8]: < 30% | DC50 [3, 9]: > 500 nM | Dmax [3, 10]: < 30% | DC50 [4, 11]: 50 to 500 nM | Dmax [4, 12]: 30 to 70%

Compound: CCC(C)S(=O)(=O)Nc1cc(Cl)cc(-c2cn(-c3ccc(N4CCN(CC5CCN(c6ccc(N7CCC(=O)NC7=O)cc6)CC5)CC4)cc3)nc2-c2ccncc2)c1F (racemic) [Compound 328, Rac-(2R)—N-[5-chloro-3-(1-{4-[4-({1-[4-(2,4-dioxo-1,3-diazinan-1-yl)phenyl]piperidin-4-yl}methyl)piperazin-1-yl]phenyl}-3-(pyridin-4-yl)-1H-pyrazol-4-yl)-2-fluorophenyl]butane-2-sulfonamide]
DC50 [1, 13]: < 10 nM | Dmax [1, 14]: 30 to 70% | DC50 [2, 15]: 10 to 50 nM | Dmax [2, 16]: > 70% | DC50 [3, 17]: 50 to 500 nM | Dmax [3, 18]: 30 to 70% | DC50 [4, 19]: < 10 nM | Dmax [4, 20]: > 70%

Second part, the molecule after the results:

DC50 [1, 5]: > 500 nM | Dmax [1, 6]: 30 to 70% | DC50 [2, 7]: > 500 nM | Dmax [2, 8]: 30 to 70% | DC50 [3, 9]: > 500 nM | Dmax [3, 10]: 30 to 70% | DC50 [4, 11]: < 10 nM | Dmax [4, 12]: > 70%
Compound: CCCS(=O)(=O)Nc1cccc(-c2nc(C(C)(C)C)sc2-c2ccnc(Nc3ccc(N4CCN(C(=O)C5CCN(c6ccc(C7CCC(=O)NC7=O)cn6)CC5)CC4)c(F)c3)n2)c1F (racemic) [Compound 57, Rac-N-(3-{2-tert-butyl-5-[2-({4-[4-(1-{5-[(3R)-2,6-dioxopiperidin-3-yl]pyridin-2-yl}piperidine-4-carbonyl)piperazin-1-yl]-3-fluorophenyl}amino)pyrimidin-4-yl]-1,3-thiazol-4-yl}-2-fluorophenyl)propane-1-sulfonamide]

DC50 [1, 5]: > 500 nM | Dmax [1, 6]: 30 to 70% | DC50 [2, 7]: > 500 nM | Dmax [2, 8]: < 30% | DC50 [3, 9]: > 500 nM | Dmax [3, 10]: < 30% | DC50 [4, 11]: < 10 nM | Dmax [4, 12]: 30 to 70%
Compound: CCCS(=O)(=O)Nc1cccc(-c2nc(C(C)(C)C)sc2-c2ccnc(Nc3cnn(CC4CCN(C(=O)C[C@@H]5CCN(c6ccc(C7CCC(=O)NC7=O)cc6)C5)CC4)c3)n2)c1F (mixture of isomers) [Compound 112, N-(3-{2-tert-butyl-5-[2-({1-[(1-{2-[(3S)-1-{4-[(3RS)-2,6-dioxopiperidin-3-yl]phenyl}pyrrolidin-3-yl]acetyl}piperidin-4-yl)methyl]-1H-pyrazol-4-yl}amino)pyrimidin-4-yl]-1,3-thiazol-4-yl}-2-fluorophenyl)propane-1-sulfonamide]

DC50 [1, 5]: < 10 nM | Dmax [1, 6]: 30 to 70% | DC50 [2, 7]: < 10 nM | Dmax [2, 8]: 30 to 70% | DC50 [3, 9]: 10 to 50 nM | Dmax [3, 10]: 30 to 70% | DC50 [4, 11]: < 10 nM | Dmax [4, 12]: > 70%
Compound: CCCS(=O)(=O)Nc1cccc(-c2nc(C3CCN(C(=O)C4(C)CCN(C(=O)C5CCN(c6ccc(C7CCC(=O)NC7=O)cn6)CC5)CC4)CC3)sc2-c2ccnc(N)n2)c1F (racemic) [Compound 197, Rac-N-{3-[5-(2-aminopyrimidin-4-yl)-2-{1-[1-(1-{5-[(3R)-2,6-dioxopiperidin-3-yl]pyridin-2-yl}piperidine-4-carbonyl)-4-methylpiperidine-4-carbonyl]piperidin-4-yl}-1,3-thiazol-4-yl]-2-fluorophenyl}propane-1-sulfonamide]

DC50 [1, 5]: > 500 nM | Dmax [1, 6]: < 30% | DC50 [2, 7]: > 500 nM | Dmax [2, 8]: < 30% | DC50 [3, 9]: > 500 nM | Dmax [3, 10]: < 30% | DC50 [4, 11]: 50 to 500 nM | Dmax [4, 12]: 30 to 70%
Compound: CCCS(=O)(=O)Nc1cccc(-c2nc(C(C)(C)C)sc2-c2ccnc(Nc3ccc(C4CCN(C(=O)C5CCN(c6cc(C7CCC(=O)NC7=O)ccn6)CC5)CC4)cc3)n2)c1F (racemic) [Compound 163, Rac-N-(3-{2-tert-butyl-5-[2-({4-[1-(1-{4-[(3R)-2,6-dioxopiperidin-3-yl]pyridin-2-yl}piperidine-4-carbonyl)piperidin-4-yl]phenyl}amino)pyrimidin-4-yl]-1,3-thiazol-4-yl}-2-fluorophenyl)propane-1-sulfonamide]
